1 compound from US8580843B2, “Use of diindolylmethane (DIM) compounds and derivatives as neuroprotective agents” (Colorado State University Research Foundation, priority 2008, dated 2013) can be followed below.

SMILES strings stand for the structures.

Test [1] relates to 3-nitrotyrosine protein nitration in astrocytes. Kind of test: Immunofluorescence of 3-nitrotyrosine adducts (protein nitration) in primary astrocytes treated with MPTP and cytokines. It counts as cell-based, mouse. The protocol: Immunofluorescence. Primary astrocytes were grown to confluence on 20 mm serum-coated glass coverslips and treated with saline or MPTP (10 μM), TNF-α (10 pg/ml), and IFN-γ (1 ng/ml) with or without DIM-C-pPhtBu (10 μM), rosiglitazone (10 μM), the NOS2 inhibitor AMT (25 nM) or NOS 1 inhibitor 7-NI (10 μM), or a DMSO vehicle control 8 hours prior to analysis. Immunofluorescence to confirm culture purity was conducted on cells grown to confluence on the 20 mm glass coverslips. Blocking and antibody hybridization was conducted in 1% BSA (w/v) in PBS, and all washes were conducted in PBS. Images were acquired using a Zeiss 20× air PlanApochromat objective and 6-8 microscopic fields were examined per treatment group over no less than three independent experiments. Fluorescent secondary antibodies were used to detect GFAP (488 nmcx/519 nmcm) and Iba1 or nitrosylated protein (647 nmcx/668 nmcm), respectively, while mounting medium containing DAPI (360 nmcx/460 nmcm) was used to identify cell nuclei.
The effect of NOS2 induction by MPTP and inflammatory cytokines on global protein nitration following NO/peroxynitrite (ONOO—) formation in astrocytes was examined by immunofluorescence (FIG. 3). Immunofluorescence using antibodies against GFAP (FITC) and 3-nitrotyrosine adducts (Cy5) was employed to measure the extent of protein nitration within astrocytes treated with MPTP and cytokines, with or without inclusion of DIM-C-pPhtBu (10 μM), rosiglitazone (10 μM), the high-affinity NOS2 inhibitor AMT (25 nM), the NOSI inhibitor 7-NI (10 μM) or a DMSO vehicle control. […] Co-treatment of astroytes with DIM-C-pPhtBu prevented MPTP-induced increases in nitration, resulting in similar levels of 3-nitrotyrosine adducts as saline-treated control cells (FIG. 3C). Mean intracellular fluorescence for 3-nitrotyrosine was quantified and compared between each treatment group (FIG. 3D).

For test [2], the system named is primary striatal neurons co-cultured with activated astrocytes. The experiment in a line: Astrocyte-neuron co-culture: apoptosis of primary striatal neurons (caspase activity, Annexin V binding). It counts as cell-based, mouse. Conditions: astrocytes co-treated with 25 nM for 8 hours, six hours of co-culture; FIG. 6 C-D. The protocol:
Astrocyte Neuron Co-Culture. Cells were isolated as described above and astrocytes grown to confluence on permeable cell culture inserts (BD Biosciences, San Jose, Calif.) prior to treatment. Astrocytes were then treated with MPTP (10 μM), TNF-α (10 pg/ml) and IFN-γ (1 ng/ml) in the presence or absence of DIM-C-pPhtBu (10 μM), Rosiglitazone (10 μM) AMT (25 nM), or DMSO vehicle control for 8 hours. Media was then removed, and the astrocytes washed three times with sterile PBS to prevent carryover of treatment medium to the neurons, and the inserts were placed directly in each well over cultured neurons. Astrocyte-containing inserts were removed following six hours of co-culture, and neuronal caspase activity and phosphatidylserine translocation were measured by widefield fluorescence microscopy using the general cell permeable fluorescent caspase substrate rhodamine 110, bis-(L-aspartic acid amide) and an Annexin V Alexa Fluor 680 conjugate, respectively. Images were acquired using a Zeiss 20× air PlanApochromat objective and at least 10 microscopic fields were examined per treatment group over three independent experiments.
The efficacy of DIM-C-pPhtBu in preventing astrocyte-dependent neuronal apoptosis was examined in FIG. 6. Astrocytes were grown to confluence in cell culture inserts that are permeable to small molecules but prevent direct cell-cell contact. Following treatment of astrocytes with MPTP and TNF-α/IFN-γ in the presence or absence of DIM-C-pPhtBu (10 μM), rosiglitazone (10 μM), the NOS2 inhibitor AMT (25 nM), or DMSO, astrocytes were washed with PBS and co-incubated directly above primary striatal neurons in neurobasal medium. Indices of neuronal apoptosis were then measured using live-cell fluorescence imaging of caspase activity (FIG. 6A) and Annexin V binding (FIG. 6B). […] The DMSO vehicle control had no suppressive effect.
Differing letters denote statistical significance (p<0.05).

In the case of `CC1CCN=C(N)S1` (stereo not drawn) [AMT, 2-amino-5,6-dihydro-6-methyl-4H-1,3-thiazine], the “MPTP-induced increase in 3-nitrotyrosine formation” value in test [1] (25 nM co-treatment, astrocytes, FIG. 3D) is listed as “prevented”. For the same compound, in test [1] (FIG. 7(D), concentration not given), the “Protein nitration in primary astrocytes induced by MPTP and TNF-α/IFN-γ” value is recorded as “prevents protein nitration”. In test [2], the “Apoptosis in co-cultured striatal neurons (caspase activity and Annexin V-binding)” value was “prevented”.
